Test results reported in publication PMC7822030, “Hybrid Inhibitors of DNA Gyrase A and B: Design, Synthesis and Evaluation” (Pharmaceutics, 2020).
Read-outs that look alike come from different tables or passages of the source.

How the values were obtained:
[1] = system: E. coli MG1655 GyrA S83L, D87N ParC S80I, E84G; test: microbe, parasite or virus in culture; assay type: cell-based, Escherichia coli
From the text: (§1) E. coli MG1655 originated from the laboratory collection of Dr. Csaba Pál. […] E. coli K-12 BW25113 single-gene knockout mutant lines ΔdapF, ΔmrcB, ΔsurA, ΔacrB and ΔtolC originated form the Keio collection copy owned by the laboratory of Dr. Csaba Pál.
(§2) Cation-adjusted Mueller Hinton II broth (MHBII) was used for growth of the bacteria under standard laboratory conditions, for antimicrobial susceptibility tests, and for selection of resistant variants. To prepare the MHBII broth, 22 g MHBII powder (containing 3 g beef extract, 17.5 g acid hydrolysate of casein, 1.5 g starch; Becton, Dickinson and Co., Franklin Lakes, NJ, USA) was dissolved in 1 L water. MHBII agar was prepared by addition of 14 g agar (Bacto; Molar Chemicals, Halásztelek, Hungary) to 1 L broth.
(§3) Minimum inhibitory concentrations (MICs) were determined using a standard serial broth microdilution technique, according to the Clinical and Laboratory Standards Institute guidelines. […] For Enterococcus sp., the cells were plated in BHI agar plates, and BHI broth was used to determine the MICs. […] Following the dilutions, each well was seeded with 5 × 10^4 bacterial cells. Each measurement was performed in three parallel replicates, and to avoid possible edge effects in the microwell plates, the outside rows (A, H) were filled with sterile medium. Following the inoculations, the plates were covered with the lids and wrapped in polyethylene plastic bags, to minimize evaporation but to allow O2 transfer. […] After incubation, the OD600 of each well was measured using a microplate reader (Synergy 2; Biotek, Winooski, VT, USA).
(§4) These mutated amino acids are the most common sites for target-based resistance in E. coli.

[2] = system: E. coli MG1655 GyrB R136C; test: microbe, parasite or virus in culture; assay type: cell-based, Escherichia coli
From the text: as §1, §2, §3, §4

E. coli MG1655 WT = test: MIC, E. coli MG1655 wild-type with PAβN; assay type: cell-based, Escherichia coli
From the text: as §1, §2
as §3, with “USA). […]” for “USA).”

K. pneumoniae ATCC 10031 = test: MIC broth microdilution, K. pneumoniae; assay type: cell-based; details: Klebsiella pneumoniae, ATCC10031, read-out: MIC K. pneumoniae ATCC #
From the text: as §1, §2, §3

E. coli BW25113 ΔsurA = assay type: cell-based, Escherichia coli
From the text: as §1, §2, §3

E. coli BW25113 ΔtolC = assay type: cell-based, Escherichia coli
From the text: as §1, §2, §3

E. coli BW25113 ΔdapF = assay type: cell-based, Escherichia coli
From the text: as §1, §2, §3

E. coli BW25113 ΔacrB = assay type: cell-based, Escherichia coli
From the text: as §1, §2, §3

E. coli BW25113 ΔmrcB = assay type: cell-based, Escherichia coli
From the text: as §1, §2, §3

E. coli ATCC 25922 = test: MIC broth microdilution, E. coli ATCC 25922; assay type: cell-based; details: Escherichia coli, ATCC25922, read-out: MIC E. coli ATCC #
From the text: as §1, §2, §3

E. coli topoisomerase IV = target: T1, E. coli topoisomerase IV (Escherichia coli, UniProt P0AFI2+P20083); test: E. coli topoisomerase IV relaxation assay; assay type: biochemical
T1 construct: purchased Inspiralis, Norwich, UK
Experimental: (§5) The assay for determination of the IC50 values was performed according to previously reported procedures.
(§6) Briefly, inhibitory activities were determined using supercoiling (for DNA gyrase) and relaxation (for topoisomerase IV) assay kits (Inspiralis, Norwich, UK) on streptavidin-coated 96-well microtiter plates from Thermo Scientific Pierce (Thermo Fisher Scientific, Waltham, MA, USA). First, the plates were rehydrated with Wash Buffer and the biotinylated oligonucleotide TFO1 was then immobilized. After washing off the unbound oligonucleotide with Wash Buffer, the enzyme assay was performed. Into each well was added 24 µL of mixture containing 6 µL of Assay Buffer (containing ATP), 0.75 µL of relaxed (for E. coli DNA gyrase supercoiling assay) or supercoiled (for E. coli topoisomerase IV relaxation assay) pNO1 plasmid and 17.25 µL of water. Additionally, 3 µL of a solution of the inhibitor in 10% DMSO containing 0.008% Tween 20 and 3 µL of enzyme (1.5 U) in Dilution Buffer were also added to the wells. […] The TF buffer was added to terminate the enzymatic reaction and after additional incubation for 30 min at room temperature, which allowed for triplex formation (biotin–oligonucleotide–plasmid), the unbound plasmid was washed off using TF buffer. Promega Diamond dye in T10 buffer was then added. […] Here, the compounds were diluted using 2-fold serial dilution steps of the given compound. GraphPad Prism 6.0 software was used to calculate the IC50 values, which were determined in at least two independent measurements, and their means are given as the final result. […] Dose-response curves can be found in Supplementary Materials.

E. coli BW25113 WT = test: MIC, E. coli BW25113 wild-type; assay type: cell-based; details: Escherichia coli, BW25113, read-out: Minimum Inhibitory Concentration E. coli BW# WT
From the text: as §1, §2, §3

P. aeruginosa ATCC 27863 = test: MIC broth microdilution, P. aeruginosa; assay type: cell-based; details: Pseudomonas aeruginosa
From the text: as §1, §2, §3

[3] = system: E. cloacae spp. cloacae ATCC 13047; test: MIC broth microdilution, E. cloacae; assay type: cell-based, Enterobacter cloacae; details: Enterobacter cloacae, ATCC13047, read-out: MIC E. cloacae spp. cloacae ATCC #
E. coli DNA gyrase = target: T2, E. coli DNA gyrase (Escherichia coli, UniProt P0AES4+P0AES6); test: E. coli DNA gyrase supercoiling assay; assay type: biochemical
T2 construct: purchased Inspiralis, Norwich, UK
Experimental: as §5, §6

A. baumannii ATCC 17978 = test: MIC broth microdilution, A. baumannii; assay type: cell-based; details: Acinetobacter baumannii, ATCC17978, read-out: MIC A. baumannii ATCC #
From the text: as §1, §2, §3

[4] = in the presence of 50 µg/mL PAβN
[5] = molar conversion in parentheses

SMILES: Cc1[nH]c(C(=O)Nc2nc3ccc(C(=O)N4CCN(c5cc6c(cc5F)c(=O)c(C(=O)O)cn6C5CC5)CC4)cc3s2)c(Cl)c1Cl [Compound 3a, 1-Cyclopropyl-7-(4-(2-(3,4-dichloro-5-methyl-1H-pyrrole-2-carboxamido)benzo[d]thiazole-6-carbonyl)piperazin-1-yl)-6-fluoro-4-oxo-1,4-dihydroquinoline-3-carboxylic acid]
- MIC ([1]; Escherichia coli, MG1655, read-out: Minimum Inhibitory Concentration E. coli MG# GyrA S83L, D87N ParC S80I, E84G): 23.4 µM
- Minimum Inhibitory Concentration E. coli MG1655 GyrA S83L, D87N ParC S80I, E84G [1, 4]: 16 µg/mL
- MIC ([2]; Escherichia coli, MG1655, read-out: Minimum Inhibitory Concentration E. coli MG# GyrB R#C): 0.73 µM
- Minimum Inhibitory Concentration E. coli MG1655 GyrB R136C [2, 4]: 0.5 µg/mL
- melting point: > 300 °C
- MIC (E. coli MG1655 WT; Escherichia coli, MG1655, read-out: Minimum Inhibitory Concentration E. coli MG# WT, 50 µg/mL PAβN, molar conversion in parentheses): 0.73 µM
- Minimum Inhibitory Concentration E. coli MG1655 WT (E. coli MG1655 WT; [4]): 0.5 µg/mL
- MIC (K. pneumoniae ATCC 10031; broth microdilution, 18 h): 0.5 µg/mL
- MIC (K. pneumoniae ATCC 10031; [5]): 0.73 µM
- Minimum Inhibitory Concentration E. coli BW25113 ΔsurA (E. coli BW25113 ΔsurA; impaired cell-wall mutant): 4 µg/mL
- Minimum Inhibitory Concentration E. coli BW25113 ΔsurA (E. coli BW25113 ΔsurA; [5]): (5.85 µM)
- Minimum Inhibitory Concentration E. coli BW25113 ΔtolC (E. coli BW25113 ΔtolC; efflux pump mutant): 1 µg/mL
- MIC change, ΔtolC mutant versus wild-type E. coli BW25113 (E. coli BW25113 ΔtolC; improvement of MIC in impaired efflux pump mutant): 4 fold
- Minimum Inhibitory Concentration E. coli BW25113 ΔtolC (E. coli BW25113 ΔtolC; [5]): (1.46 µM)
- Minimum Inhibitory Concentration E. coli BW25113 ΔdapF (E. coli BW25113 ΔdapF; impaired cell-wall mutant): 4 µg/mL
- Minimum Inhibitory Concentration E. coli BW25113 ΔdapF (E. coli BW25113 ΔdapF; [5]): (5.85 µM)
- Minimum Inhibitory Concentration E. coli BW25113 ΔacrB (E. coli BW25113 ΔacrB; efflux pump mutant): 4 µg/mL
- Minimum Inhibitory Concentration E. coli BW25113 ΔacrB (E. coli BW25113 ΔacrB; [5]): (5.85 µM)
- Minimum Inhibitory Concentration E. coli BW25113 ΔmrcB (E. coli BW25113 ΔmrcB; impaired cell-wall mutant): 4 µg/mL
- Minimum Inhibitory Concentration E. coli BW25113 ΔmrcB (E. coli BW25113 ΔmrcB; [5]): (5.85 µM)
- MIC (E. coli ATCC 25922; broth microdilution, 18 h): 2 µg/mL
- MIC (E. coli ATCC 25922; [5]): 2.93 µM
- IC50 (E. coli topoisomerase IV): 1000 ± 150 nM
- Inhibition of topoisomerase IV (in words) (E. coli topoisomerase IV; relaxation assay): low micromolar
- MIC (E. coli BW25113 WT; [5]): 5.85 µM
- MIC (E. coli BW25113 WT; wild-type): 4 µg/mL
- MIC (P. aeruginosa ATCC 27863; ATCC27863, 18 h, read-out: MIC P. aeruginosa ATCC #): 64 µg/mL
- MIC (P. aeruginosa ATCC 27863; ATCC27863, read-out: MIC P. aeruginosa ATCC #, molar conversion in parentheses, read-out: MIC P. aeruginosa ATCC 27863): 93.6 µM
- MIC ([3]; broth microdilution, 18 h): 4 µg/mL
- MIC [3, 5]: 5.85 µM
- IC50 (E. coli DNA gyrase): 450 ± 180 nM
- MIC (A. baumannii ATCC 17978; broth microdilution, 18 h): 16 µg/mL
- MIC (A. baumannii ATCC 17978; [5]): 23.4 µM
